Assay results from patent US20210087565A1, “ANTISENSE ANTIBIOTICS AND BACTERIAL SECRETION BASED DELIVERY SYSTEM TO ELIMINATE DRUG-RESISTANT BACTERIA” (priority 2018, published 2021).
Values joined by “and” are separate entries in the source; they are usually repeats but may differ in a detail not shown here. Identical values can stand only once. “Also recorded” adds a separate entry of the source.

Experiments:
CRE E. coli = assay: PNA growth assay (optical density) on clinical isolate; assay type: cell-based, Escherichia coli; conditions: for growth inhibition: 10 μM PNA, optical density vs no treatment at 16 hours
Description: (§1) Bacterial Cell culture: The clinical isolates were obtained from the lab of Nancy Madinger at the University of Colorado Anschutz campus. Clinical isolates were grown in Cation Adjusted Mueller Hinton broth (CAMHB) (Becton, Dickinson and Company 212322) at 37° C. with 225 rpm shaking or on solid CAMHB with 1.5% agar at 37° C. Clinical isolates were maintained as freezer stocks in 90% CAMHB, 10% glycerol at −80° C. Freezer stocks were streaked out onto solid CAMHB and incubated for 16 h to produce single colonies prior to experiments. For each biological replicate, a single colony was picked from solid media and grown for 16 h in liquid CAMHB prior to experiments. Non-clinical isolates, such as E. coli MG1655 (ATCC700926) and Salmonella entorica serovar typhimurium SL1344, were cultured in liquid 2% lysogeny broth (LB) or on 2% LB with 1.5% agar for solid plates. S. typhimurium cultures were supplemented with 30 μg/mL streptomycin and SL1344 strains containing plasmids pFPV (SL1344-mCherry) or pRG1 modified with a lacIq promoter (SL1344-Holin) were supplemented with 100 μg/mL ampicillin. Freezer stocks were stored in 60% LB broth, 40% glycerol at −80° C. Freezer stocks were streaked out onto solid LB and incubated for 16 h to produce single colonies before experiments. For biological replicates, single colonies were started in liquid LB and grown for 16 hours prior to experiments. E. coli MG1655 PNA growth experiments were carried out in M9 media (1×M9 minimal media salts solution (MP Biomedicals), 2.0 mM MgSO4, and 0.1 mM CaCl2 in sterile water) with 0.4% glucose.
PNA growth assay: Biological replicates were diluted 1:10,000 into treatment condition in 384-well plates and measured for 24 h in a Tecan GENios at 562 nm with a bandwidth of 35 nm. Media absorbance blanks were subtracted from data prior to analysis. Normalized optical density (OD) data is shown normalized to the time point where the “no treatment” growth curves reached saturation phase which varied across biological replicates.

E. coli MG1655 = assay: Growth curves and CFU of lab strain treated with PNA; assay type: cell-based, Escherichia coli; conditions: 10 μM
Description: FIG. 7. Dose response of various PNA. Optical density of a 1:10,000 dilution of MG6155 from overnight liquid culture, treated with various concentrations of antisense inhibitors was measured for 3 biological replicates with error bars as standard deviations. Normalized growth was measured as the optical density at 22 hours normalized to no treatment. An asterisk (*) indicates a significant difference (p<0.05) as compared to no treatment for each inhibitor.
FIG. 8. Antisense Inhibitors targeting novel pathways can inhibit growth of E. coli. z. (A) Growth curves of E. coli MG1655 from a 1:10,000 dilution from an overnight culture, normalized to time t=0 with 10 μM of respective antisense inhibitor. […] (B) Colony forming units per milliliter of MG1655 E. coli for respective treatment as a function of time. The CFU/mL at t=0 represents the starting culture after a 1:100,000 dilution from overnight culture. […] Significance is measured as p<0.05.
as §1
PNA growth assay: Biological replicates were diluted 1:10,000 into treatment condition in 384-well plates and measured for 24 h in a Tecan GENios at 562 nm with a bandwidth of 35 nm. Media absorbance blanks were subtracted from data prior to analysis. […]

HeLa cells = assay: Cytotoxicity in HeLa cells (lactate dehydrogenase assay); assay type: cell-based, human; conditions: for lethality to human epithelial cells (in words): HeLa, range of concentrations
Description: FIG. 12. Cytotoxicity measurement of varying concentration of PNA in HeLa cells. HeLa cells were plated on tissue culture treated 96-well plates at 4,500 cells per well. Varying concentrations of α-lexA and α-nonsense were added exogenously after 24 hours of growth and incubated in growth conditions for 18 hours. Cytotoxicity was measured using a lactate dehydrogenase assay and absorbance read at 450 nm with a blank (growth media with lactate dehydrogenase assay) subtracted. […] Error bars are standard deviation.

SL1344 = assay: Effect of 45-minute incubation with PNA on SL1344 viability; assay type: cell-based, Salmonella enterica serovar typhimurium; conditions: 10 μM, 45 minutes
Description: FIG. 13. Effect of 45-minute incubation with PNA treatment during infection. (A) Individual colonies of SL1344 were picked off of solid media and grown for 16 hours in luria broth supplemented with 30 μg/mL streptomycin, diluted 1:10, and regrown for 4 hours. After regrowth bacteria was diluted to a concentration equivalent to a […] multiplicity of infection of 200,000 cells/mL in 100 μL (conditions of HeLa cell infection after 24 hours growth). Cultures were suspended in phosphate buffered saline and treated with 10 μM of either α-lexA, α-rpsD, or plain phosphate buffered saline for 45 minutes before serial dilution, plated on solid media (40 μg/mL streptomycin), and incubated for 16 hours. Colony forming units were counted to enumerate percent infection with respect to no treatment. There is no significant difference (p>0.05) between α-lexA and α-rpsD at 45 minutes of treatment. […] Percent infection was then calculated in comparison to each replicates' no treatment. […]
Effect of PNA after 45 min of incubation during HeLa infection: SL1344 were cultured as described above and split 1:10 and regrown for 4 hours. […] Samples (10 μL) were taken at t=0 (before PNA addition) and t=45 min (after PNA treatment), and serially diluted, plated, and grown for 16 hours at 37° C. and CFU counted.

Substance | growth inhibition (CRE E. coli) | effect on growth (in words) (E. coli MG1655) | concentration up to which no significant difference in cytotoxicity to negative control was seen (HeLa cells; HeLa cells, 18 hours, lactate dehydrogenase assay, p>0.05) | lethality to human epithelial cells (in words) (HeLa cells) | bacterial viability after co-incubation (in words) (SL1344) | monotherapy effect (in words) (CRE E. coli; 10 μM) | colony forming units per milliliter (E. coli MG1655; within 2 hours of treatment) [CFU/mL]
α-lexA: 12-mer antisense PNA cGGAATGAAAGC (SEQ ID NO. 17) targeting lexA, conjugated to (KFF)3K cell penetrating peptide via AEEA-linker (antisense CGGAATGAAAGC; all peptide nucleic acid (PNA); (KFF)3K cell-penetrating peptide attached via AEEA linker) | 51±8.1% | complete suppression of cell growth | up to 40 μM | not found to be lethal | not long enough for the PNA to decrease bacterial viability |  | 
α-rpsD: 12-mer antisense PNA AGAAAATGGCAA (SEQ ID NO. 19) targeting rpsD, conjugated to (KFF)3K cell penetrating peptide via AEEA-linker (all peptide nucleic acid (PNA); (KFF)3K cell-penetrating peptide attached via AEEA linker) | 99±0.4% and 99% | effective in killing; also recorded: complete suppression of cell growth |  | not found to be lethal | not long enough for the PNA to decrease bacterial viability | effective in killing | 0
